Measurements reported in US20080234223A1, “N4 MODIFICATIONS OF PYRIMIDINE ANALOGS AND USES THEREOF” (UNIVERSITY OF SOUTHERN CALIFORNIA, priority 2006, published 2008).

Key:
[1] = rapid deamination by plasma cytidine deaminase; cited from earlier work
[2] = system: epigenetically silenced GFP reporter gene in NIH3T3 cells; test: Epigenetic GFP reporter system, NIH3T3 cells with transient CES1 or CES2 transfection; type: cell-based; details: NIH3T3 GFP reporter clone
Description: It was discovered that NPEOC-DAC could inhibit DNA methylation in cells expressing CES1 but not cells expressing CES2, and that inhibition of CES by NDGA blocked the ability of NPEOC-DAC to inhibit DNA methylation. […] Transfection of CES2 had no effect on NPEOC-DAC treatment and activation of GFP. NPEOC-DAC activation is dependent on CES1 expression.

[3] = system: ID4 DNA methylation in MCF7 cells; test: ID4 gene methylation, bisulfite-PCR pyrosequencing, MCF7 cells; type: cell-based; details: MCF; 10 μM; 3 days; baseline 39.0%
Experimental: (§1) T24 cells (urinary bladder transitional cell carcinoma), MCF7 (breast adenocarcinoma), HepG2 cells (hepatocellular carcinoma), Hep3B (hepatocellular carcinoma), were obtained from American Type Culture Collection (Manassas, Va.). T24 were cultured in McCoy's 5A medium supplemented with 10% fetal bovine serum. Other cells were cultured in DMEM medium plus 10% fetal bovine serum. All cells were grown in a humidified 37° C. incubator containing 5% CO2.
(§2) Cells were seeded at 2×10^4 cells per well in a 12-well dish 24 hours prior to treatments. Cells were treated with 5-Aza-CdR (Sigma-Aldrich Chemical Company, St. Louis, Mo.), NPEOC-DAC at the indicated concentrations. 5-aza-2′-deoxyazacytidine was dissolved in distilled water and NPEOC-DAC was dissolved in dimethyl sulfoxide (DMSO). Untreated controls of the DMSO solvent alone were also included. Cells were treated at the concentrations indicated for each experiment. Cells were collected after the number of days indicated in individual experiments. […]
(§3) Bisulfite modification of genomic DNA has been described previously (28). […] Bisulfite treated DNA was stored at −20° C. until ready for use.
(§4) Bisulfite-converted DNA was used for pyrosequencing analysis as previously described (29). […] Raw data were analyzed with the allele quantification algorithm using the provided software. […]

[4] = system: LINE-1 DNA methylation in Hep3B cells (liver); test: Global DNA methylation, bisulfite-PCR pyrosequencing of LINE-1, Hep3B cells; type: cell-based; details: 10 μM, three days
Experimental: as §1, §2, §3, §4

[5] = system: LINE-1 DNA methylation in T24 cells (bladder); test: Global DNA methylation, bisulfite-PCR pyrosequencing of LINE-1, T24 cells; type: cell-based; details: for LINE-1 methylation level after treatment: baseline 47.3%; for decrease in global DNA methylation (LINE-1): three days
Experimental: as §1
(§5) Cells were seeded at 2×10^4 cells per well in a 12-well dish 24 hours prior to treatments. Cells were treated with 5-Aza-CdR (Sigma-Aldrich Chemical Company, St. Louis, Mo.), NPEOC-DAC at the indicated concentrations. 5-aza-2′-deoxyazacytidine was dissolved in distilled water and NPEOC-DAC was dissolved in dimethyl sulfoxide (DMSO). Untreated controls of the DMSO solvent alone were also included. Cells were treated at the concentrations indicated for each experiment. Cells were collected after the number of days indicated in individual experiments. For subsequent methylation, genomic DNA was extracted using standard phenol/chloroform extraction methods, as described previously (27). Each experiment was done in triplicate and standard deviations are indicated by error bars.
(§6) Bisulfite modification of genomic DNA has been described previously (28). In brief, 1.5 μg of DNA was denatured in 50 μl of 0.2 M NaOH for 10 min at 37° C. Then, 30 μl of freshly prepared 10 mM hydroquinone (Sigma) and 520 μl of 3 M sodium bisulfite (Sigma) at pH 5.0 were added and mixed. The samples were overlaid with mineral oil to prevent evaporation and incubated at 50° C. for 16 h. The bisulfite-treated DNA was isolated using Wizard DNA Clean-Up System (Promega). The DNA was eluted by 50 microliters of warm water and 5.5 microliters of 3 M NaOH were added for 5 min. The DNA was ethanol precipitated with glycogen as a carrier and resuspended in 20 microliters of water. Bisulfite treated DNA was stored at −20° C. until ready for use.
(§7) Bisulfite-converted DNA was used for pyrosequencing analysis as previously described (29). In brief, PCR product of each gene was used for individual sequencing reaction. Streptavidin-Sepharose beads (Amersham Biosciences, Uppsala, Sweden) and Vacuum Prep Tool (Biotage AB, Uppsala, Sweden) was used to purify the single-stranded biotinylated PCR product per the manufacturer's recommendation. The appropriate sequencing primer was annealed to the purified PCR product and used for a pyrosequencing reaction using the PSQ 96HS system (Biotage AB, Uppsala, Sweden). Raw data were analyzed with the allele quantification algorithm using the provided software. Pyrosequencing was done for LINE-1 elements and ID4 tumor suppressor gene.

[6] = system: ID4 DNA methylation in Hep3B cells; test: ID4 gene methylation, bisulfite-PCR pyrosequencing, Hep3B cells; type: cell-based; details: 10 μM, 3 days, baseline 95.4%
Experimental: as §1, §2, §3, §4

[7] = system: LINE-1 DNA methylation in MCF7 cells (breast); test: Global DNA methylation, bisulfite-PCR pyrosequencing of LINE-1, MCF7 cells; type: cell-based; details: MCF; 10 μM; three days
Experimental: as §1, §2, §3, §4

[8] = system: ID4 expression in HepG2 cells; test: ID4 mRNA expression by RT-PCR in HepG2 cells; type: cell-based; details: 3 days of treatment, untreated cells no detectable ID4
Experimental: Genomic DNA was isolated by standard proteinase K digestion and phenol-chloroform extraction (26). Total RNA was collected and extracted from cultured cells with the RNeasy Protect minikit (Qiagen, Valencia, Calif.) according to the manufacturer's protocol.
as §5
Total RNA (5 micrograms) extracted from cultured cells was reverse transcribed with Moloney murine leukemia virus reverse transcriptase (Invitrogen, Carlsbad, Calif.) and random hexamers (NEB) in a total volume of 20 microliters. The reverse transcription was performed according to the manufacturer's recommended protocol. […]

[9] = system: ID4 DNA methylation in HepG2 cells; test: ID4 gene methylation, bisulfite-PCR pyrosequencing, HepG2 cells; type: cell-based; details: 10 μM, 3 days, baseline 94.7%
Experimental: as §1, §2, §3, §4

[10] = system: LINE-1 DNA methylation in HepG2 cells (liver); test: Global DNA methylation, bisulfite-PCR pyrosequencing of LINE-1, HepG2 cells; type: cell-based; details: for LINE-1 methylation level after treatment / LINE-1 methylation level, time course / decrease in global DNA methylation (LINE-1): HepG2; for LINE-1 methylation level after treatment: 3 days, untreated baseline 53.9%; for LINE-1 methylation level, time course: 10 μM continual treatment, baseline 53.9%; for decrease in global DNA methylation (LINE-1): three days
Experimental: as §1, §5, §6, §7

[11] = system: HepG2 cells; test: Cell toxicity during drug treatment of HepG2 cells; type: cell-based; details: for toxicity: 10 uM continual treatment, time course
Experimental: as §5

[12] = system: ID4 DNA methylation in T24 cells; test: ID4 gene methylation, bisulfite-PCR pyrosequencing, T24 cells; type: cell-based; details: 10 μM, 3 days, baseline 40.2%
Experimental: as §1, §2, §3, §4

[13] = system: LINE-1 DNA methylation in HepG2 cells (carboxylesterase dependence); test: Inhibition of carboxylesterase by NDGA: LINE-1 methylation in HepG2 cells; type: cell-based
Description: as §7
For dose effects of nordihydroguaiaretic acid (NDGA) on CES inhibition, HepG2 cells were grown in 6-well plates. […] Cells were harvested on day 4 by Tripsin-EDTA.

[14] = Solubility in water; type: physicochemical; details: consequently dissolved in DMSO

SMILES | reactivation of GFP ([2]; no CES transfection) | decrease in DNA methylation of ID4 [3] [%] | decrease in global DNA methylation (LINE-1) [4] [%] | decrease in global DNA methylation (LINE-1) ([5]; 10 μM) [%] | decrease in DNA methylation of ID4 [6] [%] | decrease in global DNA methylation (LINE-1) [7] [%] | ID4 mRNA expression (RT-PCR) [8] | decrease in DNA methylation of ID4 [9] [%] | LINE-1 methylation level after treatment ([10]; 0.5 μM) | LINE-1 methylation level, time course ([10]; day 1) | LINE-1 methylation level, time course ([10]; day 7) | decrease in global DNA methylation (LINE-1) ([10]; 10 μM) [%] | toxicity [11] | decrease in DNA methylation of ID4 [12] [%] | further results
Nc1ncn([C@@H]2O[C@H](CO)[C@@H](O)[C@H]2O)c(=O)n1 [5-azacytidine] |  |  |  |  |  |  |  |  |  |  |  |  |  |  | in vivo plasma half-life [1]: 41 min
Nc1ncn([C@H]2C[C@H](O)[C@@H](CO)O2)c(=O)n1 [DAC, 5-aza-2′-deoxycytidine, reference compound] | could be reactivated | 19.7 | 12.3 | 57.1 | 1.1 | 11.0 | clear expression of ID4 could be detected | 2.6 | 46.0% | 36.5% | returned to baseline | 5.6 | significant toxicity | 38.1 | LINE-1 methylation level after treatment ([5]; 0.5 uM, 3 days): 26.8%; LINE-1 methylation level after treatment ([5]; 1 uM, 3 days): 21.0%; LINE-1 methylation level after treatment ([5]; 5 uM, 3 days): 35.7%; LINE-1 methylation level after treatment ([10]; 1 μM): 47.0%; LINE-1 methylation level after treatment ([10]; 5 μM): 56.9%; cell toxicity ([11]; higher concentrations (5 μM), 3 days): significant cell toxicity
CC(Cc1ccc(O)c(O)c1)C(C)Cc1ccc(O)c(O)c1 (centres unmarked) [NDGA, nordihydroguaiaretic acid, reference compound] |  |  |  |  |  |  |  |  |  |  |  |  |  |  | effect on DNA methylation of HepG2 cells ([13]; 100 μM, alone): no effect
O=C(Nc1ncn([C@H]2C[C@H](O)[C@@H](CO)O2)c(=O)n1)OCCc1ccc([N+](=O)[O-])cc1 [NPEOC-DAC, 2′-deoxy-N4-[2-(4-nitrophenyl)ethoxycarbonyl]-5-azacytidine] | without reactivation of GFP | 10.0 | 17.4 | 0.9 | 26.2 | 5.1 | increased expression of ID4 | 24.7 | no detectable effect | did not begin to decrease LINE-1 methylation until day 3 | 38.9% | 22.1 | less toxicity than observed with DAC | 8.2 | reactivation of GFP ([2]; transfection of CES2): no effect; reactivation of GFP ([2]; transient transfection of human CES1 gene): reactivation of GFP; decrease in DNA methylation (LINE-1), time course ([5]; 10 μM, prolonged treatment (to day 14)): did not show any decrease; change in DNA methylation (LINE-1) ([5]; 3 days, up to the highest concentrations): no change in DNA methylation; LINE-1 methylation decreased by ([13]; 10 μM NPEOC-DAC alone): 49.7%; LINE-1 methylation level after treatment ([13]; 10 μM NPEOC-DAC alone): 24.5%; LINE-1 methylation change in combination with NDGA ([13]; in combination with NDGA (100 μM)): did not decrease; delay in the effects compared to DAC [10]: 3 days; fold less efficient at inhibiting DNA methylation compared to DAC [10]: 23 fold; LINE-1 methylation level, time course ([10]; day 3): 43.7%; LINE-1 methylation level, time course ([10]; day 14): 30.9%; LINE-1 methylation level after treatment ([10]; 10 μM, concentration series): 42.0%; LINE-1 methylation level after treatment ([10]; 100 μM): 28.7%; solubility in water [14]: very low solubility in water
